Source: patent publication US5753631A, “Intercellular adhesion mediators” (Cytel Corporation, priority 1995, dated 1998)

What was measured:
[1] = system: dermal and pulmonary models of inflammation; assay: Dermal and pulmonary models of inflammation: leukocyte accumulation; type: in vivo
[2] = system: IgA immune complex induced lung injury; assay: IgA immune complex-induced acute lung injury in the rat; type: in vivo, rat (male Long-Evans); conditions: conclusion in words
Description: Groups of rats were dosed with either vehicle, SLN-OH (100 μpg), or with SLX-OH (100 μg) […] post induction of inflammation. Each bar represents the mean of 6 animals and vertical lines represent the standard error of the mean.
Adult male (300 g) specific pathogen-free Long-Evans rats purchased from Charles River Labs (Portage, Mich.) were employed in the studies. For the induction of IgG immune complex pulmonary inflammation rabbit polyclonal IgG rich in antibody to bovine serum albumin (antiBSA) was purchased from Organon Teknika (Westchester, PA). Intraperitoneal ketamine (10 mg/Kg) was administered for anesthesia. 2.5 mg of anti-BSA in a volume of 300 μl was instilled intratracheally via a small intratracheal catheter during inspiration after surgical exposure of the trachea. Intravenous injection of 10 mg BSA was injected intravenously to generate immune complex formation. Trace amounts of ^125 I-BSA and ^51 Cr-RBC were administered with the BSA as markers for plasma and RBC extravasation respectively. Rats were sacrificed 4 h later and lung injury was assessed by the ratio of radiolabelled albumin in the lungs relative to the circulation (permeability), the ratio of RBC in the lungs relative to the circulation (hemorrhage) and the amount of myeloperoxidase activity in a lung homogenate (neutrophil accumulation). For induction of IgA immune complex induced lung injury 1.2 mg of a murine myeloma IgA protein specific for dinitrophenol (DNP) was instilled intratracheally and 3.3 mg DNP-bovine serum albumin injected intravenously. Lung injury was assessed in the same manner described for IgG-induced lung injury.
SLX-OH, Z, the non-fucosylated control oligosaccharide SLN, or an equivalent volume of PBS were injected intravenously in three equally divided doses at 2, 2.5, and 3 h following deposition of immune complexes. This schedule for injections was selected since it coincides with the time during which rapid expression of E-selectin occurs in the pulmonary vasculature.

Which results are given for `CCO[C@@H]1O[C@H](CO)[C@H](O)[C@H](O[C@@H]2O[C@H](CO)[C@@H](O[C@@H]3O[C@H](CO)[C@H](O)[C@H](O[C@]4(C(=O)O)C[C@H](O)[C@@H](NC(C)=O)[C@H]([C@H](O)[C@H](O)CO)O4)[C@H]3O)[C@H](O[C@@H]3O[C@@H](C)[C@@H](O)[C@@H](O)[C@@H]3O)[C@H]2NC(C)=O)[C@H]1O` [Z, Ethyl(sodium(5-acetamido-3,5-dideoxy-α-D-glycero-D-galacto-2-nonulopyanosylonate))-(2-3)-O-(β-D-galactopyranosyl)-(1-4)-O-((α-L-fucopyranosyl)-(1-3))-O-(2-acetamido-2-deoxy-β-D-glucopyranosyl)-(1-3)-O-β-D-galactopyranoside]?
inhibition of leukocyte accumulation [1]: do not provide evidence of the ability of Z to inhibit leukocyte accumulation; effect on IgA immune complex-induced neutrophil accumulation and pathological sequelae [2]: not IgA
